Reference: US10654845B2, “2-(het)aryl-substituted fused bicyclic heterocycle derivatives as pesticides” (BAYER CROPSCIENCE AKTIENGESELLSCHAFT, priority 2015, dated 2020)
Like-named read-outs stand apart in the source and are kept apart here.

Key:
[1] = log P by HPLC on reversed-phase column (C18), EEC Directive 79/831 Annex V.A8
Source text: Called log P (HCOOH) in the table.
Called log P (neutral) in the table.

Phaedon cochleariae = Phaedon cochleariae spray test; format: in vivo; conditions: for pest or weed control at 500 g/ha: Phaedon cochleariae, 168 h, read-out: efficacy in %
Protocol: Phaedon cochleariae-Spray Test
(§1) Solvent: 78.0 parts by weight of acetone
(§2) • 1.5 parts by weight of dimethylformamide Emulsifier: alkylaryl polyglycol ether
(§3) To produce a suitable preparation of active compound, 1 part by weight of active compound is dissolved using the stated parts by weight of solvent and made up with water containing an emulsifier concentration of 1000 ppm until the desired concentration is attained. To produce further test concentrations, the preparation is diluted with emulsifier-containing water.
After 7 days, the efficacy in % is determined. 100% means that all the beetle larvae have been killed; 0% means that no beetle larvae have been killed.

Myzus persicae = Myzus persicae spray test (Chinese cabbage leaf discs); format: in vivo
Protocol: Myzus persicae Spray Test
Solvent: 78 parts by weight of acetone
as §2, §3
Discs of Chinese cabbage leaves (Brassica pekinensis) infested by all stages of the green peach aphid (Myzus persicae) are sprayed with an active compound preparation of the desired concentration.
After 6 days, the efficacy in % is determined. 100% means that all the aphids have been killed; 0% means that no aphids have been killed.

Tetranychus urticae = Tetranychus urticae spray test, OP-resistant; format: in vivo; conditions: after 6 days, spider mites killed
Protocol: Tetranychus urticae-Spray Test, OP-Resistant
as §1, §2, §3
Discs of bean leaves (Phaseolus vulgaris) infested with all stages of the greenhouse red spider mite (Tetranychus urticae) are sprayed with an active compound preparation of the desired concentration.
After 6 days, the efficacy in % is determined. 100% means that all the spider mites have been killed; 0% means that no spider mites have been killed.

[2] = 500 g/ha, after 7 days, beetle larvae killed
[3] = 500 g/ha, after 6 days, aphids killed
[4] = reversed-phase HPLC column (C18), pH 2.7, logP-acidic, LC-MS acidic range, pH 2.7 (HCOOH), C18, 55° C.
[5] = reversed-phase HPLC column (C18), pH 7.8, log P (neutral), preparation examples, neutral range, pH 7.8
[6] = reversed-phase HPLC column (C18), pH 7.8, logP-neutral, LC-MS neutral range, pH 7.8, C18, 55° C.
[7] = Myzus persicae, foliar, 144 h, 500 g/ha, after 6 days, aphids killed, read-out: efficacy in %
[8] = LC-MS acidic range, pH 2.7 (HCOOH), C18, 55° C.
[9] = LC-MS neutral range, pH 7.8, C18, 55° C.
[10] = 100 g/ha, after 6 days, aphids killed

Compound	logP-acidic ([1]; pH 2.7)	efficacy in % (Phaedon cochleariae; [2])	efficacy in % (Myzus persicae; [3])	logP-neutral ([1]; pH 7.8)	also measured
CCS(=O)(=O)c1ccc(NC(=O)c2ccccc2)nc1-c1nc2cc(C(F)(F)F)ncc2n1C [Example 20]	2.98	83%	90%		
CCS(=O)(=O)c1ccc(/S(C)=N/C#N)nc1-c1nc2cc(C(F)(F)F)ncc2n1C (stereo not shown) [Example 43, [{5-(Ethylsulphonyl)-6-[3-methyl-6-(trifluoromethyl)-3H-imidazo[4,5-c]pyridin-2-yl]pyridin-2-yl}(methyl)-lambda4-sulphanylidene]cyanamide]					chromatographic logP [1, 4]: 1.75; chromatographic logP [1, 5]: 1.75; chromatographic logP [1, 6]: 1.75; pest or weed control at 500 g/ha (Phaedon cochleariae; [2]): 100%; pest or weed control at 500 g/ha (Myzus persicae; [7]): 90%
CCS(=O)(=O)c1ccc(NS(=O)(=O)C(F)(F)F)nc1-c1nc2cc(C(F)(F)F)ncc2n1C [Example 58]	2.37			1.20	efficacy in % (Tetranychus urticae; 500 g/ha): 90%
CCS(=O)(=O)c1ccc(NC)nc1-c1nc2cc(C(F)(F)F)ncc2n1C [Example 38]		100%	90%		logP-acidic [1, 8]: 2.05; logP-neutral [1, 9]: 2.03
CCS(=O)(=O)c1ccc(N(C)N)nc1-c1nc2cc(C(F)(F)F)ncc2n1C [Example 74]		100%	90%		logP-acidic [1, 8]: 1.96; efficacy in % (Tetranychus urticae; 500 g/ha): 90%
CCS(=O)(=O)c1ccc(NC(C)=S)nc1-c1nc2cc(C(F)(F)F)ncc2n1C [Example 63, N-[5-Ethylsulphonyl-6-[3-methyl-6-(trifluoromethyl)imidazo[4,5-c]pyridin-2-yl]-2-pyridyl]thioacetamide]					chromatographic logP ([1]; pH 2.7): 2.6; chromatographic logP ([1]; pH 7.8): 2.41; pest or weed control at 500 g/ha (Phaedon cochleariae): 100%; pest or weed control at 500 g/ha (Myzus persicae; Myzus persicae, foliar, 144 h, read-out: efficacy in %): 90%
CCS(=O)(=O)c1ccc(N(C)NC)nc1-c1nc2cc(C(F)(F)F)ncc2n1C [Example 60, 1-[5-Ethylsulphonyl-6-[3-methyl-6-(trifluoromethyl)imidazo[4,5-c]pyridin-2-yl]-2-pyridyl]-1,2-dimethylhydrazine]					chromatographic logP ([1]; pH 2.7): 2.37; chromatographic logP ([1]; pH 7.8): 2.39; pest or weed control at 500 g/ha (Phaedon cochleariae; [2]): 100%; pest or weed control at 100 g/ha (Myzus persicae; Myzus persicae, foliar, 144 h, 100 g/ha, after 6 days, aphids killed, read-out: efficacy in %): 90%; efficacy in % (Tetranychus urticae; 100 g/ha): 90%
CCOCC(=O)Nc1ccc(S(=O)(=O)CC)c(-c2nc3cc(C(F)(F)F)ncc3n2C)n1 [Example 52]	2.64	100%	100%	2.51	
CC[S+]([O-])c1ccc(NC(C)=O)nc1-c1nc2cc(C(F)(F)F)ncc2n1C (stereo not shown) [Example 9]	2.02	83%	90%	1.97	
CCS(=O)(=O)c1ccc(C(=O)NC)nc1-c1nc2cc(C(F)(F)F)ncc2n1C [Example 31, 5-(Ethylsulphonyl)-N-methyl-6-[3-methyl-6-(trifluoromethyl)-3H-imidazo[4,5-c]pyridin-2-yl]pyridine-2-carboxamide]					chromatographic logP [1, 4]: 2.01; chromatographic logP [1, 5]: 1.96; chromatographic logP [1, 6]: 1.96; pest or weed control at 500 g/ha (Phaedon cochleariae; [2]): 100%; pest or weed control at 500 g/ha (Myzus persicae; [7]): 100%; efficacy in % (Tetranychus urticae; 500 g/ha): 100%
CCS(=O)(=O)c1ccc(NC(=O)CSC)nc1-c1nc2cc(C(F)(F)F)ncc2n1C [Example 53]	2.51	100%	90%	2.38	
CCS(=O)(=O)c1ccc(C(=S)NC2CC2)nc1-c1nc2cc(C(F)(F)F)ncc2n1C [Example 36]	3.17	100%	90%	3.14	
CCS(=O)(=O)c1ccc(NN)nc1-c1nc2cc(C(F)(F)F)ncc2n1C [Example 55]		100%	100%		logP-acidic [1, 8]: 1.39
CCS(=O)(=O)c1ccc(NC(=O)c2cscn2)nc1-c1nc2cc(C(F)(F)F)ncc2n1C [Example 66]	2.60	100%		2.58	efficacy in % (Myzus persicae; [10]): 90%
CCC(=O)Nc1ccc(S(=O)(=O)CC)c(-c2nc3cc(C(F)(F)F)ncc3n2C)n1 [Example 13]	2.33	100%	90%	2.28	
CCS(=O)(=O)c1ccc(N(C)C(C)=O)nc1-c1nc2cc(C(F)(F)F)ncc2n1C [Example 69]		100%	90%		logP-acidic [1, 8]: 2.11; logP-neutral [1, 9]: 2.10

Compound	logP-acidic ([1]; pH 2.7)	efficacy in % (Phaedon cochleariae; [2])	efficacy in % (Myzus persicae; [3])	logP-neutral ([1]; pH 7.8)	also measured
CCS(=O)(=O)c1ccc(C(=O)NC2CC2)nc1-c1nc2cc(C(F)(F)F)ncc2n1C [Example 33]	2.34			2.27	efficacy in % (Phaedon cochleariae; 100 g/ha, after 7 days, beetle larvae killed): 83%; efficacy in % (Tetranychus urticae; 500 g/ha): 90%
CCS(=O)(=O)Nc1ccc(S(=O)(=O)CC)c(-c2nc3cc(C(F)(F)F)ncc3n2C)n1 [Example 59]	2.08			0.90	efficacy in % (Myzus persicae; [10]): 100%
CCS(=O)(=O)c1ccc(NC(=O)C[S+](C)[O-])nc1-c1nc2cc(C(F)(F)F)ncc2n1C (stereo not shown) [Example 70]	1.63	100%	100%	1.68	
CCS(=O)(=O)c1ccc(NC(=O)CS(C)(=O)=O)nc1-c1nc2cc(C(F)(F)F)ncc2n1C [Example 72]	1.87	100%	100%	1.92	
CC[S+]([O-])c1ccc(S(=O)(=O)CC)c(-c2nc3cc(C(F)(F)F)ncc3n2C)n1 (stereo not shown) [Example 37, 2-[6-(Ethylsulphinyl)-3-(ethylsulphonyl)pyridin-2-yl]-3-methyl-6-(trifluoromethyl)-3H-imidazo[4,5-c]pyridine]					chromatographic logP [1, 4]: 2.03; chromatographic logP [1, 5]: 2.02; chromatographic logP [1, 6]: 2.02; pest or weed control at 500 g/ha (Phaedon cochleariae; [2]): 100%; pest or weed control at 500 g/ha (Myzus persicae; [7]): 90%
CCC(=O)Nc1ccc([S+]([O-])CC)c(-c2nc3cc(C(F)(F)F)ncc3n2C)n1 (stereo not shown) [Example 2]	2.33	100%	90%	2.25	
CCS(=O)(=O)c1ccc(NC(=O)C(C)CS(C)(=O)=O)nc1-c1nc2cc(C(F)(F)F)ncc2n1C (stereo not shown) [Example 61]	2.02	100%	100%		
CCS(=O)(=O)c1ccc(C(=S)NC)nc1-c1nc2cc(C(F)(F)F)ncc2n1C [Example 34, 5-(Ethylsulphonyl)-N-methyl-6-[3-methyl-6-(trifluoromethyl)-3H-imidazo[4,5-c]pyridin-2-yl]pyridine-2-carbothioamide]					chromatographic logP [1, 4]: 2.8; chromatographic logP [1, 5]: 2.76; chromatographic logP [1, 6]: 2.76; pest or weed control at 500 g/ha (Myzus persicae; [7]): 90%; efficacy in % (Tetranychus urticae; 500 g/ha): 100%
CCS(=O)(=O)c1ccc(NC(=O)C(F)(F)F)nc1-c1nc2cc(C(F)(F)F)ncc2n1C [Example 3]	2.74	100%	100%	1.73	
CCS(=O)(=O)c1ccc(NC(=O)C(F)(F)C(F)(F)F)nc1-c1nc2cc(C(F)(F)F)ncc2n1C [Example 4]		100%	100%		logP-acidic [1, 8]: 3.17; logP-neutral [1, 9]: 1.94
CCS(=O)(=O)c1ccc(NC(=O)C(C)C[S+](C)[O-])nc1-c1nc2cc(C(F)(F)F)ncc2n1C (stereo not shown) [Example 57]	1.81	100%	90%		
CCS(=O)(=O)c1ccc(NC(=O)C(C)C)nc1-c1nc2cc(C(F)(F)F)ncc2n1C [Example 16, N-{5-(Ethylsulphonyl)-6-[3-methyl-6-(trifluoromethyl)-3H-imidazo[4,5-c]pyridin-2-yl]pyridin-2-yl}-2-methylpropanamide]					chromatographic logP [1, 4]: 2.63; chromatographic logP [1, 5]: 2.61; chromatographic logP [1, 6]: 2.61; pest or weed control at 500 g/ha (Phaedon cochleariae; [2]): 100%; pest or weed control at 500 g/ha (Myzus persicae; [7]): 100%
CCS(=O)(=O)c1ccc(NC(=O)CC2CC2)nc1-c1nc2cc(C(F)(F)F)ncc2n1C [Example 7]	2.71	100%	90%	2.66	
CCNC(=O)c1ccc(S(=O)(=O)CC)c(-c2nc3cc(C(F)(F)F)ncc3n2C)n1 [Example 32]	2.29	100%		2.22	
CCS(=O)(=O)c1ccc([S+](C)[O-])nc1-c1nc2cc(C(F)(F)F)ncc2n1C (stereo not shown) [Example 44]			90%		
